From publication PMC5315611 (Clinical cancer research : an official journal of the …, 2016)
Read-outs that look alike come from different tables or passages of the source.

Assays:
[1] = test system: relapsed or refractory acute leukemia; settings: cited from earlier work
[2] = human, in vivo, po
[3] = test system: AML cell lines and clinical samples; settings: in vitro; cited from earlier work
clinical = settings: human, in vivo, po; for half-life: t1/2
[4] = Veliparib plasma pharmacokinetics; settings: after multiple doses, MTD (80 mg) vs highest administered dose (100 mg)

N.N.O=C([O-])C1(C(=O)[O-])CCC1.[Pt+2] [carboplatin]
carboplatin dose at the MTD of the combination (CI IV days 3-7, with veliparib 80 mg twice daily + topotecan 1.2 mg/m^2/d): 150 mg/m^2/d
maximum tolerated dose (MTD) of carboplatin ([1]; with topotecan simultaneously for 5 days): 150 mg/m^2/day

C[C@]1(c2nc3c(C(N)=O)cccc3[nH]2)CCCN1 [veliparib]
maximum tolerated dose (MTD) of veliparib (with CI IV topotecan 1.2 mg/m^2/d + carboplatin 150 mg/m^2/day on days 3-7): 80 mg twice daily
Cl/F ([2]; 10 mg): 27.7 ± 9.3 (23) L/h
Cl/F ([2]; 20 mg): 31.7 ± 7.7 (12) L/h
Cl/F ([2]; 40 mg): 36.4 ± 15.4 (5) L/h
Cl/F ([2]; 80 mg): 26.2 ± 7.1 (30) L/h
Cmax ([2]; 80 mg): 608.7 ± 260.3 (35) ng/mL
Tmax ([2]; 80 mg): 1.1 (0.3 - 6.0; 35) h
t1/2 ([2]; 80 mg): 4.7 ± 1.4 (30) h
Cl/F ([2]; 90 mg): 35.9 ± 10.2 (3) L/h
Cl/F ([2]; 100 mg): 44.9 ± 50.6 (4) L/h
effect on the antiproliferative and proapoptotic effects of topotecan [3]: enhances
synergy with cytarabine or etoposide [3]: no synergy
Cmax (clinical; 10 mg): 74.6 ± 33 ng/mL
half-life (clinical; 10 mg): 5.5 ± 3.5 h
Tmax (clinical; 10 mg): 2 h
Cmax (clinical; 20 mg): 102 ± 31.6 ng/mL
half-life (clinical; 20 mg): 4.7 ± 1.1 h
Tmax (clinical; 20 mg): 2 h
Cmax (clinical; 40 mg): 231 ± 128 ng/mL
half-life (clinical; 40 mg): 4.1 ± 0.9 h
Tmax (clinical; 40 mg): 1 h
Cmax (clinical; 90 mg): 509 ± 101 ng/mL
half-life (clinical; 90 mg): 3.2 ± 1.2 h
Tmax (clinical; 90 mg): 1 h
Cmax (clinical; 100 mg): 1120 ± 718 ng/mL
half-life (clinical; 100 mg): 5.9 ± 2.4 h
Tmax (clinical; 100 mg): 1 h
increase in AUC [4]: 2.0 fold

CC[C@@]1(O)C(=O)OCc2c1cc1n(c2=O)Cc2cc3c(CN(C)C)c(O)ccc3nc2-1 [topotecan]
topotecan dose at the MTD of the combination (CI IV days 3-7, with veliparib 80 mg twice daily + carboplatin 150 mg/m^2/d): 1.2 mg/m^2/d
toxicity associated with topotecan 1.3 mg/m^2 (in vivo): dose-limiting GI mucositis
maximum tolerated dose (MTD) of topotecan ([1]; with carboplatin simultaneously for 5 days): 1.6 mg/m^2/day
